Measurements published in publication PMC8397634 (Journal of Natural Medicines, 2021).
Where “and” joins values, the source holds several entries; their conditions need not be identical. Equal entries are not always repeated. Entries after “also recorded” stand apart in the source; their conditions may differ. Where two headings read alike, the source gives them in different places.

Experiments:
α4β2 nAChRs [1] = biological target: T1, α4β2 nAChRs (Homo sapiens, UniProt P17787+P43681); assay: In vitro nAChR functional assay (automated patch-clamp, CHO cells); type: cell-based; conditions: for Emax: CHO, read-out: % activation of α4β2 nAChR (normalized to nicotine)
Experimental: Electrophysiological responses were recorded using an automated patch-clamp Patchliner Octo® system (Nanion Technologies, Munich, Germany) equipped with two EPC-10 Quadro patch-clamp amplifiers (HEKA Elektronik, Lambrecht, Germany) as described previously. Chinese hamster ovarian (CHO) cells stably expressing human α4β2 nAChRs (Charles River Laboratories, Wilmington, MA, USA) were used. All experiments were performed at room temperature (24 °C) and repeated at least three times. Data were analyzed using Patchmaster software (HEKA Elektronik). Offline data analysis was performed in Apache OpenOffice™ (v4.1.2; […]). Igor Pro software (v6.2.2.2; WaveMetrics, Lake Oswego, OR, USA) was used to determine EC50 values. […] The average values were then fitted to the Hill equation: I=Baseline+X^∧nH(Imax-Baseline)/X^∧nH+EC50^∧nH, where I is the current response, Baseline is the minimal current response, X is the agonist concentration, nH is the Hill coefficient, Imax is the maximal current, and EC50 is the agonist concentration producing half-maximal activation. […]

[2] = system: zebrafish (Danio rerio; strain AB); conditions: for Time spent at the bottom of the tank during NTT / anxiolytic-like effect: 30 mg/L
Experimental: The NTT conditions closely matched the most commonly used conditions described by. In brief, adult male and female wild-type zebrafish were treated with the compounds for 20 min in a final volume of 50 mL in a 250-mL treatment beaker, one fish at a time. The fish were briefly rinsed in fresh system water, and then immediately transferred to a trapezoidal tank (14.6-cm height × 5.5-cm width × 27.9-cm top length and × 23.6-cm bottom length) filled with 1.5 L system water. The behavior of the fish was monitored for the next 5 min using the Noldus EthoVision XT system (Wageningen, Netherlands), with the camera placed approximately 1 m from the test tank. The tanks were uniformly illuminated from above at approximately 200 lx, reported to be the optimal illumination condition for NTT [23]. Background noise was kept at a minimum during the test. All experimental parameters were monitored closely and kept as consistent as possible throughout the study. The part of the tank filled with water (11.5-cm height) was virtually divided into top, center, and bottom of equal heights (approximately 3.8 cm per segment) for the analyses. The average time spent at the top and bottom portions of the tank was analyzed to determine the anxiety-like behavior of fish. The average total distance traveled and freezing time (as defined by a complete cessation of movement except for gills and eyes) were calculated to determine the effects of the compounds on the general behavior of fish. The analyses were conducted for 1-min time bins. To account for any day-to-day variability in fish behavior, fish treated with vehicle were tested on the same day as the compounds. […] A minimum of 12 fish (6 females and 6 males) per condition were used for the study. The actual sample size per condition is indicated in Online Resource 1. […] The experimenters were blind to the test conditions. The NTT was validated with buspirone, a clinical anxiolytic drug, as previously described.
If not, the concentration was reduced until no obvious signs of tolerability problems were observed. […] The concentrations were calculated based on the free base molecular weight.
Two-way repeated measures analysis of variance (ANOVA) with Dunnett post hoc was used for the 1-min binned analysis of the zebrafish NTT data. Treatment was one factor, and time was the second factor. […] Thus, male and female datasets were combined for the final analyses. […] The EC50 values were determined by applying the nonlinear regression analysis. All analyses were conducted using GraphPad Prism v8.2.1 (GraphPad Software, San Diego, CA, USA).

[3] = Brain bioavailability assay in zebrafish (UPLC-HRMS of brain homogenate); type: in vivo, Danio rerio; conditions: zebrafish brain after 20-min exposure, linear relationship assumed, mean ± SEM; for concentration at 20 min: both sexes, zebrafish (Danio rerio), 1 mg/L, read-out: Relative brain level per 1 mg/L compound
Experimental: Four fish (2 males and 2 females) per compound were used to determine the brain bioavailability of the compounds. Immediately after the 20-min compound treatment, the zebrafish were rinsed briefly to remove excessive compound on their body and terminated with 250 mg/L tricaine (CAS No. 886-86-2; Sigma). The fish were decapitated at the level of the gills using a surgical knife. The head was turned dorsal side down, and soft tissue was removed from the ventral side of the skull until the base of the skull was exposed. The skull was broken open and the bone from the ventral side of the brain was removed. The brain was then placed in a microcentrifuge tube, weighed, snap-frozen in liquid nitrogen, and stored at – 80 °C until the analysis.
Briefly, on the day of analysis, the brain samples were defrosted, resuspended in a methanol solution (2:1 [v/v] methanol:MilliQ water), and homogenized with vigorous agitation and ultrasonication (5 min each). The homogenate was centrifuged at 15,000 × rpm for 10 min, and the supernatant was analyzed using a UPLC-Q Exactive Orbitrap-HRMS system (Thermo Fisher Scientific™, Bremen, Germany). Chromatographic separation was achieved on a Synergi™ 4-µm Hydro-RP 80 Å, L.C. Column (250 × 4.6 mm; Phenomenex Inc., Torrance, CA, USA) with 0.1% formic acid in water (mobile phase A) and 0.1% formic acid in acetonitrile (mobile phase B). A gradient method at a 500 µL/min flow rate was applied as follows: (1) 5% B for 1 min, and (2) increase to 95% B over 7 min and hold for 2 min. The injection volume was 5 μL. The mass spectrometer was operated in electrospray positive mode (ESI, Thermo Fisher Scientific), while data acquisition was performed using the parallel reaction monitoring (PRM) and full scan modes. The source settings were set as follows: sheath gas flow rate = 60 psi; aux gas flow rate = 20 arbitrary units; spray voltage = 3.5 kV; capillary temperature = 280 °C; and sweep gas flow rate = 1. The full scan mode parameters were set as follows: resolution = 35,000 FWHM at 200 m/z; AGC target = 1E6; maximum injection time = 110 ms; and scan range = 100–350 m/z. The chromatographic and Orbitrap MS parameters for PRM analysis were the same as those in the full scan mode, except for: AGC target = 2E5; maximum IT = 60 ms; and resolution = 17,500 FWHM at 200 m/z. The XCalibur™ v4.0.27.19 software (Thermo Fisher Scientific) and TraceFinder™ v4.1 Forensic (Thermo Fisher Scientific, San José, CA, USA) were used for system control and data processing, respectively. The Q Exactive 2.8 SP 1 software (Thermo Fisher Scientific) was used to control the mass spectrometer.

[4] = system: other molecular targets (175 in vitro binding and enzymatic assays); assay: In vitro molecular target profiling (175 binding and enzymatic assays); conditions: 10 µM single concentration; 175 assays; effect greater than 50% considered significant
Experimental: (§1) All binding and functional assays for molecular target characterization were conducted by Eurofins Cerep SA (Celle-Lévescault, France) and Eurofins Panlabs Discovery Services Taiwan, Ltd. (New Taipei City, Taiwan) using their standard in vitro binding and functional assays (Online Source 2). The radioligand displacement binding assays employed the gold-standard filtration method using membrane preparations from stable cell lines expressing human or rodent target proteins to determine the interaction of the compounds with specific receptors, channels, and transporters. For this purpose, the competitive binding of test compounds against a [^125I]-, [^3H]-, or [^35S]-labeled agonist and/or antagonist was determined. The specific list of radiolabeled ligands and experimental conditions are summarized in Online Source 2. A single concentration of each compound (10 µM in 0.1% DMSO) was used for the screen. […] Negative values were considered to be an artifact arising from, for example, compounds interfering with the assay readout.
3.1. Experimental Conditions
In Vitro Pharmacology: Binding Assays
(§2) Assay Source Ligand Conc. Kd Non Specific Incubation Detection Bibl.

muscle-type nAChR = biological target: T2, muscle-type nAChR (Homo sapiens, UniProt P02708+P07510+Q07001); assay: Muscle-type nAChR radioligand binding (target profiling); conditions: 10 µM single concentration; effect greater than 50% considered significant
T2 construct: TE671 cells; host or cells: TE671 cells (endogenous)
Experimental: as §1, §2

α7 nAChR = conditions: cited from earlier work; for α7 nAChR agonist activity: ref 2 (Alijevic, et al.)
α4β2 nAChRs [5] = biological target: T1, α4β2 nAChRs; assay: In vitro α4β2 nAChR radioligand displacement binding assay; parameters: host or cells: SH-SY5Y cells (human recombinant), membrane preparation; conditions: for Binding to α4β2 nAChR in target profiling: 10 µM single concentration, effect greater than 50% considered significant
Experimental: as §1, §2

[6] = highest concentration tested (10 mg/L), 20-min treatment
[7] = CHO cells stably expressing human α4β2 nAChRs, patch clamp, 24 °C, mean ± SEM (Fig. 1), read-out: α4β2 nAChR EC50
[8] = all concentrations tested, 20-min treatment, 5-min test, vs vehicle control
[9] = other: immersion in compound solution (waterborne exposure)

T1 sequence (P43681 29-627 limits assumed): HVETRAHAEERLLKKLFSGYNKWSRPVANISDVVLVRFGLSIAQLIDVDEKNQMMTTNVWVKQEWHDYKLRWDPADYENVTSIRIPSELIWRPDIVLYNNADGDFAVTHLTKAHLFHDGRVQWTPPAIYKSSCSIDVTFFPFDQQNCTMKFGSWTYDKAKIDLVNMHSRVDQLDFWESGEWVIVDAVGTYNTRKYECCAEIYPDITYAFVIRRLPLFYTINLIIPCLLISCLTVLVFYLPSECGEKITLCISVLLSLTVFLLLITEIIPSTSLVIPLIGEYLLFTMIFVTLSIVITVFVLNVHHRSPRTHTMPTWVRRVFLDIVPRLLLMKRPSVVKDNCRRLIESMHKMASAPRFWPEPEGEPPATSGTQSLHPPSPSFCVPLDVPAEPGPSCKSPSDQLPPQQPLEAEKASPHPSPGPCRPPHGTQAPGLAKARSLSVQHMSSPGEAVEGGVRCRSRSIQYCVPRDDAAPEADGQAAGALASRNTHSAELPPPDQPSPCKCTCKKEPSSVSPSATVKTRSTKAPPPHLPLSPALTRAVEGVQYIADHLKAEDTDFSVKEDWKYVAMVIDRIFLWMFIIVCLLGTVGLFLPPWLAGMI
T1 sequence (P17787 26-502): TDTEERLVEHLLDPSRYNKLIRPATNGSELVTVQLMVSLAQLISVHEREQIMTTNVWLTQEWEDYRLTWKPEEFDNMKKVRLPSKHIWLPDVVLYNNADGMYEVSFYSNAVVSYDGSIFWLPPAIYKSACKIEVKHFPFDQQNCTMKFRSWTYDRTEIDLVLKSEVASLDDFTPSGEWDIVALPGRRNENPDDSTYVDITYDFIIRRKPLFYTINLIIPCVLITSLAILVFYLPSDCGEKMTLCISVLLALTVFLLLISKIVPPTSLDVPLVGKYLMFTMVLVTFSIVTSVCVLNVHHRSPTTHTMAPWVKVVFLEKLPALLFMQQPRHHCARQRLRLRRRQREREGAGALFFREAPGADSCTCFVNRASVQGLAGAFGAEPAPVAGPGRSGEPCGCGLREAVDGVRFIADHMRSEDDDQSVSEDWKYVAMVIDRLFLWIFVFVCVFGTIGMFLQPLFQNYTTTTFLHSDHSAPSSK
T2 sequence (P02708 21-457): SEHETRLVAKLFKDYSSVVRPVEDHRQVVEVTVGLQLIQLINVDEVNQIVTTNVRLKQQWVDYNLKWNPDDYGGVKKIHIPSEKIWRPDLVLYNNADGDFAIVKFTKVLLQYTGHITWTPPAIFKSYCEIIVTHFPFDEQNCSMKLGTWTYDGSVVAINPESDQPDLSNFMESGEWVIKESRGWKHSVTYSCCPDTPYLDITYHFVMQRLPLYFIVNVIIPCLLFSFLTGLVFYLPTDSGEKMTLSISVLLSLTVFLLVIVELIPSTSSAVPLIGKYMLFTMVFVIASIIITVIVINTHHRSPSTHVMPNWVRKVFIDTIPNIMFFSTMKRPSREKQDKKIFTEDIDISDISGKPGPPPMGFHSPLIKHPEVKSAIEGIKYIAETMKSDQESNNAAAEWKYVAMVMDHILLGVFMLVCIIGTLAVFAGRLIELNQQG
T2 sequence (Q07001 22-517): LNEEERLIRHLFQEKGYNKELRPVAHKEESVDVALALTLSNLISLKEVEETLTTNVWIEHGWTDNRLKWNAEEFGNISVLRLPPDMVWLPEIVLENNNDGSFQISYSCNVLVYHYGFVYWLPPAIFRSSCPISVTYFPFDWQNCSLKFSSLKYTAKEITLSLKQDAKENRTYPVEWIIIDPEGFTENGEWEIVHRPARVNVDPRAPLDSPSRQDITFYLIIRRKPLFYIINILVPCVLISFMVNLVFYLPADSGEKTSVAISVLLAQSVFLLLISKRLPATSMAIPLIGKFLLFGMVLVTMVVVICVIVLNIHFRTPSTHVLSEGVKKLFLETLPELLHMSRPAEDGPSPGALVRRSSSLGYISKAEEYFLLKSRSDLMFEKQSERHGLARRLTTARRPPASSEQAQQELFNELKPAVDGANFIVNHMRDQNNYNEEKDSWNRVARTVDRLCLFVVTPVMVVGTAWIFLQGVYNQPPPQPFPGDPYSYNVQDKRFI
T2 sequence (P07510 23-517): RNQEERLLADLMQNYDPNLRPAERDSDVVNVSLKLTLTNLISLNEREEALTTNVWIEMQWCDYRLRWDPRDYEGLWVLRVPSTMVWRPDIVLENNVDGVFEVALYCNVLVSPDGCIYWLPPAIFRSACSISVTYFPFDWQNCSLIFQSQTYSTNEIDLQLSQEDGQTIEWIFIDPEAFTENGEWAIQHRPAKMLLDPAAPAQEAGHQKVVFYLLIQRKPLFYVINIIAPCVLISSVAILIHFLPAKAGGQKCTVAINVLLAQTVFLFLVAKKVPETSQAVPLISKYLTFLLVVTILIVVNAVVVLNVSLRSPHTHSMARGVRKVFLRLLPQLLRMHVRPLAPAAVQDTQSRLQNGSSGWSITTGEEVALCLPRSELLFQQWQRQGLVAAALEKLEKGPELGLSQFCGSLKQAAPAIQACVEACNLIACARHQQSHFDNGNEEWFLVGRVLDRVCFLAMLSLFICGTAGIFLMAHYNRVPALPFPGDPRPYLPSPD

Compound: C1=CCC(c2cccnc2)NC1 (racemic) [Anatabine, ( ±)-Anatabine]
- Emax (α4β2 nAChRs [1]): 80%
- Freezing time during NTT ([2]; 0.3 mg/L): increased the freezing time during the first 3 min
- Concentration effective in reducing anxiety-like behavior in NTT ([2]; 20-min treatment): 10 mg/L
- Time spent at the bottom of the tank during NTT [2, 6]: significantly decreased the time spent at the bottom
- Total distance traveled during NTT ([2]; lowest (0.3 mg/L) and highest (10 mg/L) concentrations): slight but significant reduction in the total distance traveled
- concentration at 20 min ([3]; in vivo): 440 ± 150 ng/g
- Binding to or regulation of other molecular targets [4]: did not bind or regulate the activities of other molecular targets
- Binding to muscle-type nAChR in target profiling (muscle-type nAChR): specific binding
- α7 nAChR agonist activity (α7 nAChR): weak α7 nAChR agonist
- Binding to α4β2 nAChR in target profiling (α4β2 nAChRs [5]): specific binding

Compound: O=C(c1ccc(Cl)o1)N1CC2CNCC2C1 (stereo not drawn) [AZD1446, 3-(5-chloro-2-furoyl)-3,7-diazabicyclo[3.3.0]octane, reference compound]
- EC50 (α4β2 nAChRs [1]; [7]): 7.9 µM and < 8 µM
- Emax (α4β2 nAChRs [1]): 100%
- Time spent at the bottom of the tank during NTT / anxiolytic-like effect ([2]; 20-min treatment): decreased the time spent at the bottom at 2 and 4 min
- Time spent at the bottom of the tank during NTT ([2]; 100 mg/L, 20-min treatment): decreased the time spent at the bottom for the first 2 min
- Time spent at the top of the tank during NTT ([2]; 30 and 100 mg/L, 20-min treatment): increased the time spent at the top
- Size of the reduction of anxiety-like behavior in NTT ([2]; lower two concentrations (30 and 100 mg/L)): ~ 10%
- Relative brain level per 1 mg/L compound [3]: could not be detected; also recorded: at the limit of detection; also recorded: No value^d

Compound: c1cncc([C@@H]2CCCCN2)c1 [Anabasine, ( +)-Anabasine]
- Emax (α4β2 nAChRs [1]): 7%
- effectiveness in activating α4β2 nAChRs in vitro (α4β2 nAChRs [1]; preliminary data): 8 ± 4%
- EC50 (α4β2 nAChRs [1]; α4β2 nAChR EC50, CHO cells stably expressing human α4β2 nAChRs, patch clamp, 24 °C, mean ± SEM (Fig. 1)): < 8 µM and 0.9 µM
- Time spent at the bottom of the tank during NTT [2, 8]: no significant effect
- concentration at 20 min ([3]; in vivo): 230 ± 70 ng/g
- α7 nAChR activation relative to maximum receptor activation by nicotine or anatabine (α7 nAChR): approximately a third
- α7 nAChR agonist activity (α7 nAChR): weak α7 nAChR agonist

Compound: CC(=O)OCC[N+](C)(C)C [Acetylcholine, reference compound]
- % activation of α4β2 nAChR (normalized to nicotine) (α4β2 nAChRs [1]): 100%
- Time spent at the bottom of the tank during NTT [2, 8]: no effect
- concentration at 20 min [3, 9]: 20 ± 10 ng/g

Compound: CN1C(=O)CC[C@H]1c1cccnc1 [Cotinine, (–)-cotinine]
- EC50 (α4β2 nAChRs [1]; [7]): 85.3 µM
- Emax (α4β2 nAChRs [1]): 59%
- Time spent at the bottom of the tank during NTT ([2]; 100 mg/L, 20-min treatment): reduced the overall time spent at the bottom
- Concentration needed for anxiolytic-like effect relative to nicotine ([2]; NTT): > 300 fold
- concentration at 20 min [3, 9]: 20 ± 10 ng/g
- Relative brain level per 1 mg/L compound [3]: less than 0.1 ng/mg tissue
- Binding to or regulation of other molecular targets [4]: did not bind or regulate the activities of other molecular targets
- Binding to muscle-type nAChR in target profiling (muscle-type nAChR): specific binding
- Binding to α4β2 nAChR in target profiling (α4β2 nAChRs [5]): specific binding
- IC50 (α4β2 nAChRs [5]; n = 3, read-out: α4β2 nAChR IC50 (binding)): 9.9 µM

Compound: c1cnc2cc3c(cc2n1)[C@@H]1CNC[C@H]3C1 [Varenicline, reference compound]
- concentration at 20 min [3, 9]: 450 ± 160 ng/g

Compound: ( ±)-nornicotine
- % activation of α4β2 nAChR (normalized to nicotine) (α4β2 nAChRs [1]): 44%
- Time spent at the bottom of the tank during NTT [2, 8]: no significant effect

Compound: CNCC/C=C/c1cccnc1 [Metanicotine, metanicotine]
- Emax (α4β2 nAChRs [1]): 100%
- EC50 (α4β2 nAChRs [1]; α4β2 nAChR EC50): 19.5 ± 6.4 µM
- Time spent at the bottom of the tank during NTT [2, 8]: no significant effect
- concentration at 20 min ([3]; in vivo): 70 ± 10 ng/g
- Relative brain level per 1 mg/L compound [3]: less than 0.1 ng/mg tissue

Compound: CN1CC=CC[C@H]1c1cccnc1 [Methylanatabine, (S)-N-methylanatabine]
- EC50 (α4β2 nAChRs [1]; [7]): < 8 µM
- Emax (α4β2 nAChRs [1]): 26%
- EC50 (α4β2 nAChRs [1]; α4β2 nAChR EC50): 6.2 µM
- Concentration effective in reducing anxiety-like behavior in NTT ([2]; 20-min treatment): 10 mg/L
- Time spent at the bottom of the tank during NTT [2, 6]: anxiolytic-like effect
- concentration at 20 min ([3]; in vivo): 1390 ± 560 ng/g
- Relative brain level per 1 mg/L compound [3]: ~1 ng/mg tissue
- IC50 (α4β2 nAChRs [5]): 0.891 µM

Compound: O=C1CC2(CCCC2)CC(=O)N1CCCCN1CCN(c2ncccn2)CC1 [Buspirone, buspirone, reference compound]
- Time spent at the bottom of the tank during NTT / anxiolytic-like effect ([2]; 20-min treatment): consistent anxiolytic-like effect across all time points
- Freezing response during NTT ([2]; 100 mg/L): increased the freezing response at 1, 2, and 5 min
- Total distance traveled during NTT ([2]; 100 mg/L): reduced the total distance traveled at 1, 4, and 5 min
- Time spent at the bottom of the tank during NTT [2, 8]: either reduced the time spent on the bottom or increased the time spent on the top at multiple time points
